Data from patent US20190209650A1, “METHOD TO IMPROVE THE EFFECTIVENESS OF ANTI-CANCER THERAPIES BY EXPOSING CANCER CELLS TO AN INFLAMMATORY STIMULUS PRIOR TO TREATMENT” (priority 2016, published 2019).

Test system: SW620 colorectal cancer cell line
Assay: Flow cytometry of EpCAM positive cells and cancer stem cell (CD44+CD133-) subpopulation after incubation with cytokines
Format: cell-based, human
Conditions: for % Gated, R4 (CD44FITC, CD133 PE) / % Total, R4 (CD44FITC, CD133 PE): population R4 & R14 & R2 & R1; for % Gated, R5 (CD44FITC, CD133 PE) / % Total, R5 (CD44FITC, CD133 PE): population R5 & R14 & R2 & R1; for % Gated, R6 (CD44FITC, CD133 PE) / % Total, R6 (CD44FITC, CD133 PE): population R6 & R14 & R2 & R1; for % Gated, R7 Cancer Stem Cell (CSC) (CD44+CD133-) / % Total, R7 Cancer Stem Cell (CSC) (CD44+CD133-): population R7 & R14 & R2 & R1; for % Gated, R8 (CD44FITC, EpCAMefluor710) / % Total, R8 (CD44FITC, EpCAMefluor710): population R8 & R14 & R2 & R1; for % Gated, R9 EpCAM positive Cells (CD44FITC, EpCAMefluor710) / % Total, R9 EpCAM positive Cells (CD44FITC, EpCAMefluor710): population R9 & R14 & R2 & R1; for % Gated, R10 EpCAM positive Cells (CD44FITC, EpCAMefluor710) / % Total, R10 EpCAM positive Cells (CD44FITC, EpCAMefluor710): population R10 & R14 & R2 & R1; for % Gated, R11 (CD44FITC, EpCAMefluor710) / % Total, R11 (CD44FITC, EpCAMefluor710): population R11 & R14 & R2 & R1
Procedure: This number returned to near baseline 21% at 48 hours. […] This change was transient, occurring within 24 hours and rapidly returning to baseline.
The data from the scatter plots of FIGS. 1A-1H, 2A-2H, and 3A-3H are reproduced below in Tables 1-3.
Based on the above data of potentiating the effectiveness of chemotherapy by exposing cancer cells to specific cytokines such as HGF and or Il-6 within a time limited fashion, the mechanism behind this ability to sensitize cancer cells may not simply be triggering cellular proliferation. Specific cytokine exposures can transiently cause a cancer cell population to differentiate away from a more stem cell enriched, mesenchymal phenotype towards a more differentiated, epithelial cell population more sensitive to the effects of anti-cancer therapies (see Tables 1-3).
In particular, exposure to a control population of SW620 colorectal cancer cell line to HGF at a concentration of 10 ng per ml for 24 hours caused the control putative stem cell population (CD44+/CD133−) to drop from 33% at baseline (see Table 1, R7 region, CD 44 positive/CD133 negative) to 1% (see Table 2, R7, region CD 44 positive/CD133 negative). This drop was transient, as exposure to the same cell line for 48 hours of HGF at 10 ng per ml transitioned the phenotypic distribution back towards a stem cell enriched phenotype with 23% putative stem cells (see Table 3, R7 region, CD 44 positive/CD133 negative).

How did the “% Gated, R4 (CD44FITC, CD133 PE)” value (0 hour incubation) turn out when IL6: Interleukin 6, cytokine was run?
The value was 48.6%.

What about the “% Total, R4 (CD44FITC, CD133 PE)” value (0 hour incubation) of the same substance?
The value was 45.1%.

What about the “% Gated, R5 (CD44FITC, CD133 PE)” value (0 hour incubation) of the same substance?
Its value is 3.48%.

What about the “% Total, R5 (CD44FITC, CD133 PE)” value (0 hour incubation) of the same substance?
The value was 3.23%.

And the “% Gated, R6 (CD44FITC, CD133 PE)” value (0 hour incubation)?
Its value is 13.9%.

And the “% Total, R6 (CD44FITC, CD133 PE)” value (0 hour incubation)?
The value was 12.9%.

What about the “% Gated, R7 Cancer Stem Cell (CSC) (CD44+CD133-)” value (from here on “% Gated, R7 Cancer Stem Cell”) (0 hour incubation) of the same substance?
The value was 34.2%.

What about the “% Total, R7 Cancer Stem Cell (CSC) (CD44+CD133-)” value (“% Total, R7 Cancer Stem Cell” for short) (0 hour incubation) of the same substance?
The value was 31.7%.

And the “% Gated, R8 (CD44FITC, EpCAMefluor710)” value (0 hour incubation)?
The value was 5.15%.

And the “% Total, R8 (CD44FITC, EpCAMefluor710)” value (0 hour incubation)?
The value was 4.78%.

What about the “% Gated, R9 EpCAM positive Cells (CD44FITC, EpCAMefluor710)” value (“% Gated, R9 EpCAM positive Cells” for short) (0 hour incubation) of the same substance?
Its value is 53%.

And the “% Total, R9 EpCAM positive Cells (CD44FITC, EpCAMefluor710)” value (shortened to “% Total, R9 EpCAM positive Cells”) (0 hour incubation)?
Its value is 49.2%.

What about the “% Gated, R10 EpCAM positive Cells (CD44FITC, EpCAMefluor710)” value (“% Gated, R10 EpCAM positive Cells” below) (0 hour incubation) of the same substance?
Its value is 39%.

What about the “% Total, R10 EpCAM positive Cells (CD44FITC, EpCAMefluor710)” value (shortened to “% Total, R10 EpCAM positive Cells”) (0 hour incubation) of the same substance?
Its value is 36.1%.

What about the “% Gated, R11 (CD44FITC, EpCAMefluor710)” value (0 hour incubation) of the same substance?
Its value is 2.42%.

And the “% Total, R11 (CD44FITC, EpCAMefluor710)” value (0 hour incubation)?
Its value is 2.24%.

And the “% Gated, R4 (CD44FITC, CD133 PE)” value (24 h incubation)?
Its value is 41.1%.

What about the “% Total, R4 (CD44FITC, CD133 PE)” value (24 h incubation) of the same substance?
Its value is 33.4%.

What about the “% Gated, R5 (CD44FITC, CD133 PE)” value (24 h incubation) of the same substance?
Its value is 7.69%.

What about the “% Total, R5 (CD44FITC, CD133 PE)” value (24 h incubation) of the same substance?
Its value is 6.27%.

And the “% Gated, R6 (CD44FITC, CD133 PE)” value (24 h incubation)?
Its value is 28.8%.

What about the “% Total, R6 (CD44FITC, CD133 PE)” value (24 h incubation) of the same substance?
Its value is 23.4%.

What about the “% Gated, R7 Cancer Stem Cell” value (24 h incubation) of the same substance?
The value was 22.3%.

And the “% Total, R7 Cancer Stem Cell” value (24 h incubation)?
Its value is 18.1%.

And the “% Gated, R8 (CD44FITC, EpCAMefluor710)” value (24 h incubation)?
The value was 5.35%.

What about the “% Total, R8 (CD44FITC, EpCAMefluor710)” value (24 h incubation) of the same substance?
The value was 4.36%.

And the “% Gated, R9 EpCAM positive Cells” value (24 h incubation)?
Its value is 48.4%.

What about the “% Total, R9 EpCAM positive Cells” value (24 h incubation) of the same substance?
Its value is 39.4%.

What about the “% Gated, R10 EpCAM positive Cells” value (24 h incubation) of the same substance?
Its value is 45.2%.

And the “% Total, R10 EpCAM positive Cells” value (24 h incubation)?
Its value is 36.8%.

What about the “% Gated, R11 (CD44FITC, EpCAMefluor710)” value (24 h incubation) of the same substance?
The value was 1.94%.

What about the “% Total, R11 (CD44FITC, EpCAMefluor710)” value (24 h incubation) of the same substance?
Its value is 1.58%.

What about the “% Gated, R4 (CD44FITC, CD133 PE)” value (48 h incubation) of the same substance?
The value was 37.5%.

And the “% Total, R4 (CD44FITC, CD133 PE)” value (48 h incubation)?
Its value is 33.7%.

And the “% Gated, R5 (CD44FITC, CD133 PE)” value (48 h incubation)?
The value was 7.38%.

What about the “% Total, R5 (CD44FITC, CD133 PE)” value (48 h incubation) of the same substance?
The value was 6.64%.

What about the “% Gated, R6 (CD44FITC, CD133 PE)” value (48 h incubation) of the same substance?
Its value is 30.7%.

What about the “% Total, R6 (CD44FITC, CD133 PE)” value (48 h incubation) of the same substance?
The value was 27.6%.

What about the “% Gated, R7 Cancer Stem Cell” value (48 h incubation) of the same substance?
The value was 25.1%.

What about the “% Total, R7 Cancer Stem Cell” value (48 h incubation) of the same substance?
The value was 22.6%.

And the “% Gated, R8 (CD44FITC, EpCAMefluor710)” value (48 h incubation)?
Its value is 26%.

What about the “% Total, R8 (CD44FITC, EpCAMefluor710)” value (48 h incubation) of the same substance?
Its value is 23.4%.

What about the “% Gated, R9 EpCAM positive Cells” value (48 h incubation) of the same substance?
The value was 27.6%.

What about the “% Total, R9 EpCAM positive Cells” value (48 h incubation) of the same substance?
The value was 24.8%.

And the “% Gated, R10 EpCAM positive Cells” value (48 h incubation)?
The value was 26%.

What about the “% Total, R10 EpCAM positive Cells” value (48 h incubation) of the same substance?
The value was 23.3%.

And the “% Gated, R11 (CD44FITC, EpCAMefluor710)” value (48 h incubation)?
Its value is 21.4%.

What about the “% Total, R11 (CD44FITC, EpCAMefluor710)” value (48 h incubation) of the same substance?
The value was 19.3%.
